Assay results published in patent publication US11473088B2, “Method of treating cancer and method of sensitizing cancer cells to the action of chemotherapeutic agents via growth hormone receptor antagonists or knock down” (Ohio University, priority 2016, dated 2022).
“Also recorded” adds a separate entry of the source. Where two headings read alike, the source gives them in different places.

Assays:
SK-MEL-28 cells [1] = assay: ABC transporter RNA (RT-qPCR) following drug treatment; format: cell-based, human; settings: for Efflux Pumps (expression level change, p < 0.05): ABC-transporter pumps with significantly down-regulated RNA expressions: 24 hr. drug exposure, GHR-siRNA vs scr-siRNA transfected
Method: (§1) Transfection was performed using siLentFect lipid reagent (Biorad #170-3360, Hercules, Calif.) following the manufacturer's protocol. […] Media was changed after 24 hours. RNA levels were analyzed 48 hours post transfection while protein levels were analyzed at 60 hours post-transfection. For drug treatment, drugs at the specified concentrations noted above were added to the cells 48 hours post-transfection and treated for 24 hours prior to quantitation of RNA expressions.
(§2) RNA extraction, RT-qPCR, and protein extraction were performed as described in Example 1, above.

MALME-3M cells [2] = assay: as above; format: cell-based, human; settings: for Efflux Pumps (expression level change, p < 0.05): ABC-transporter pumps with significantly down-regulated RNA expressions: 24 hr. drug exposure, GHR-siRNA vs scr-siRNA transfected
Method: as §1, §2

SK-MEL-5 cells [3] = assay: as above; format: cell-based, human; settings: 24 hr. drug exposure, GHR-siRNA vs scr-siRNA transfected
Method: as §1, §2

MDA-MB-435 cells [4] = assay: as above; format: cell-based, human; settings: 24 hr. drug exposure, GHR-siRNA vs scr-siRNA transfected
Method: as §1, §2

MDA-MB-435 cells [5] = assay: as above; format: cell-based, human; settings: 24 hr sub-EC50 drug, 50 ng/mL hGH
SK-MEL-5 cells [6] = assay: as above; format: cell-based, human
four melanoma cell lines = assay: Cell proliferation / EC50 determination; settings: read-out: EC50 ranges for the four melanoma cell lines
Method: (§4) A 1% (w/v) resazurin (Sigma-Aldrich #R7017) solution in 1× PBS was made and filter-sterilized. The final concentration of resazurin in the assay was 0.004%. Inside the proliferating cells, mildly fluorescent blue resazurin is reduced to a bright pink fluorescent product called resorufin (stable for 4 hours), which allows for a quantitative measure of the percentage of proliferating cells. In all cases, cells were incubated at 37° C. in 5% CO2 for 45-60 min. for adequate sensitivity of detection. Briefly, cells were seeded at 10,000 cells/cm^2 into 96-well plates and transfected as described above. The resazurin assay was performed 60 hours after transfection (unless specified otherwise) and resorufin absorbance was measured at 570 nm (reference wavelength=600 nm) using Spectramax250 (Molecular Devices, Sunnyvale, Calif.) and SoftmaxPro software.
More specifically, SK-MEL-28 cells (FIG. 8A, panel 1), MALME-3M cells (FIG. 8A, panel 2), MDA-MB-435 cells (FIG. 8A, panel 3), and SK-MEL-5 cells (FIG. 8A, panel 4) were treated with increasing doses of hGH for 48 hr. and cell proliferation was estimated using a resazurin-based metabolic assay.
For treatment of melanoma cells, the following five anti-tumor compounds were obtained from the sources mentioned: cisplatin (Calbiochem #232120, Darmstadt, Germany), doxorubicin (Sigma Aldrich #D-1515, St. Louis, Mo.), oridonin (Sigma-Aldrich #O-9639, St. Louis, Mo.), Paclitaxel (Sigma-Aldrich #C-7191), and vemurafenib/PLX4032 (ApexBio #A-3004, Houston, Tex.). […] In the subsequent experiments, the following drug concentrations were used unless specified otherwise: cisplatin (0.5 μM), doxorubicin (10 nM), oridonin (0.5 μM), paclitaxel (1 nM), vemurafenib (2 nM). Treatments were performed for 24 hours starting 48 hours post-transfection with siRNA.

SK-MEL-28 cells [7] = assay: RT-qPCR time course after doxorubicin addition; format: cell-based, human; settings: 188 nM doxorubicin
Method: (§3) Following treatments, cells were lysed, and RNA extraction was performed using IBI Tri-isolate kit (IBI), following manufacturer's protocol. RT-qPCR was performed as described previously.

SK-MEL-28 cells [8] = assay: EC50 of doxorubicin (cell viability); format: cell-based; settings: Homo sapiens, Example 3, read-out: EC50 of doxorubicin against SK-MEL-28 cells
Method: Cell viability, following treatments, was performed using Invitrogen's PrestoBlue cell viability assay system. As described previously, it is a resazurin based assay which is reduced to resorufin (absorption at 570 nm) by the reducing environment of metabolically viable cells. It was performed in a 96-well system as described previously.

MALME-3M cells [9] = assay: Cell proliferation (resazurin) assay; format: cell-based, human; settings: Homo sapiens, EC50 levels (cisplatin 10 μM, paclitaxel 5 nM), 24 hr, with and without siRNA mediated KD of GHR
Method: For hGH treatment, 16 hours after seeding (or 24 hours post-transfection), the cells were serum-starved for 2 hours in serum-free growth media, and hGH (phosphate buffered saline was used as control where applicable) was added at the noted concentrations (0-, 5-, 50-, and 150 ng/ml). Cells were subsequently incubated for 24 hours before evaluating RNA levels. Recombinant hGH was purchased from Antibodies Online (#ABIN2017921, Atlanta, Ga.).
On the other hand, a pronounced drop in proliferation levels in all the cell lines was seen when GHR was knocked down. […] Cell proliferation was estimated using resazurin-based metabolic assay. […] Averages of at least four independent experiments performed in quadruplicate were taken [*, p<0.05, Students t-test]. The results may indicate that human melanoma cells utilize GH-GHR interaction to drive aggressive tumor phenotypes.
To determine this, and referring now to FIGS. 35A-35D, changes in amounts of calcein retained inside cells following treatment with calcein-AM ester was analyzed by the fluorescence readout from intracellular calcein. Increased abundance of transporter pumps is reflected by decreased levels of intracellular calcein. […] Assays were performed 48 hr. post-transfection with either scr-siRNA or GHR-siRNA. […] SK-MEL-28 (FIG. 35C) and MALME-3M (FIG. 35D) cells were exposed to DMSO (vehicle), or 10 um cisplatin (Cis), or 5 nM paclitaxel (Pac) for 24 hr. Treatments were done 48 hr. post-transfection with either scr-siRNA (scr) or GHR-siRNA (GHR). Mean of three independent experiments performed in triplicate was taken. [*, p<0.05, Students t test, n=3]

SK-MEL-28 cells [10] = assay: Cell proliferation (resazurin) assay; format: cell-based; settings: Homo sapiens, EC50 levels (cisplatin 10 μM, paclitaxel 5 nM), 24 hr, with and without siRNA mediated KD of GHR
Method: as §4

[11] = system: B16F10 mouse melanoma cells; assay: ABC-transporter RNA in bGH treated cells (RT-qPCR); format: cell-based
Method: as §3
GH upregulates ABC-transporter expression in mouse melanoma B16F10 cells in vitro and in vivo: B16F10 mouse melanoma cells were treated with 50 or 500 ng/mL bGH for 6, 24, 48 or 72 hr and the changes in the RNA levels of specific multidrug exporter pumps were analyzed over time and GH dose. […] RNA extracted from B16F10 tumors grown in GHRKO or bGH mice were analyzed for the above ABC-transporters. In bGH mice, the tumor cells and resulting tumors were exposed in vivo to high endogenous GH and high IGF-1; while in GHRKO mice, the tumor cells and resulting tumors were exposed in vivo to high GH but low IGF1.

[12] = 24 hr sub-EC50 drug, 50 ng/mL hGH
[13] = 24-hour drug, presence vs absence of 50 ng/mL GH

N.N.[Cl][Pt][Cl] [cisplatin]
ABCB1 RNA level in response to drug (SK-MEL-28 cells [1]; [12]): Significant upregulation | ABCB5 RNA level in response to drug (SK-MEL-28 cells [1]; [12]): significantly upregulated | ABCG1 RNA level in response to drug (SK-MEL-28 cells [1]; [12]): surged | Efflux Pumps (expression level change, p < 0.05): ABC-transporter pumps with significantly down-regulated RNA expressions (SK-MEL-28 cells [1]): ABCB1, ABCB5, ABCB8, ABCG1 | ABCB8 RNA expression on drug exposure in presence of GH (MALME-3M cells [2]; [13]): increase | Efflux Pumps (expression level change, p < 0.05): ABC-transporter pumps with significantly down-regulated RNA expressions (MALME-3M cells [2]): ABCB1 | Efflux Pumps (expression level change, p < 0.05): ABC-transporter pumps with significantly down-regulated RNA expressions (SK-MEL-5 cells [3]): ABCB1, ABCC1, ABCC2, ABCG2 | Efflux Pumps (expression level change, p < 0.05): ABC-transporter pumps with significantly down-regulated RNA expressions (MDA-MB-435 cells [4]): ABCB1, ABCB8, ABCC2, ABCG1,; also recorded: ABCG2 | ABCB1 RNA level in response to drug (MDA-MB-435 cells [5]): Significant upregulation | ABCC2 RNA level in response to drug (MDA-MB-435 cells [5]): significantly increased | ABCG1 RNA level in response to drug (MDA-MB-435 cells [5]): surged | ABCG2 RNA level in response to drug (MDA-MB-435 cells [5]): significantly upregulated | ABCB5 RNA expression on drug exposure in presence of GH (SK-MEL-5 cells [6]; [13]): increase | ABCB8 RNA expression on drug exposure in presence of GH (SK-MEL-5 cells [6]; [13]): increase | ABCG2 RNA expression on drug exposure in presence of GH (SK-MEL-5 cells [6]; [13]): increase | EC50 (four melanoma cell lines): 3000 to 15000 nM

COc1cccc2c1C(=O)c1c(O)c3c(c(O)c1C2=O)C[C@@](O)(C(=O)CO)C[C@@H]3O[C@H]1C[C@H](N)[C@H](O)[C@H](C)O1 [doxorubicin]
rise in ABCB1 RNA (SK-MEL-28 cells [7]; 12-hr): 4 fold | rise in ABCG1 RNA (SK-MEL-28 cells [7]; 12-hr): 8 fold | transcript levels of CDH2, VIM and SNAI1 (SK-MEL-28 cells [7]; 12-hr after addition): increased significantly | GER levels (RNA) (SK-MEL-28 cells [7]; by 24-hr): concomitant rise | rise in autocrine GH transcript (SK-MEL-28 cells [7]; by 24-hr): > 2 fold | RNA levels of ABCB8, ABCC1 and ABCC4 drug efflux pumps (SK-MEL-28 cells [7]; end of 24 hr): significantly higher levels | increase in CDH2 transcript (SK-MEL-28 cells [7]; end of 24 hr): > 3.5 fold | increase in SNAI1 transcript (SK-MEL-28 cells [7]; end of 24 hr): > 2 fold | reduction in the epithelial marker CDH1/E-cadherin (SK-MEL-28 cells [7]; end of 24 hr): > 8 fold | ABCB1 RNA expression on drug exposure in presence of GH (SK-MEL-28 cells [1]; [13]): upregulation | ABCB8 RNA expression on drug exposure in presence of GH (SK-MEL-28 cells [1]; [13]): upregulation | ABCB5 RNA level in response to drug (SK-MEL-28 cells [1]; [12]): significantly upregulated | ABCG1 RNA level in response to drug (SK-MEL-28 cells [1]; [12]): surged | ABCG2 RNA level in response to drug (SK-MEL-28 cells [1]; [12]): significantly upregulated | Efflux Pumps (expression level change, p < 0.05): ABC-transporter pumps with significantly down-regulated RNA expressions (SK-MEL-28 cells [1]): ABCB8, ABCC1, ABCG1, ABCG2 | ABCC2 RNA expression on drug exposure in presence of GH (MALME-3M cells [2]; [13]): increase | ABCG1 RNA expression on drug exposure in presence of GH (MALME-3M cells [2]; [13]): increase | ABCB8 RNA level in response to drug (MALME-3M cells [2]; [12]): significant upregulation | ABCG1 RNA level in response to drug (MALME-3M cells [2]; [12]): surged | Efflux Pumps (expression level change, p < 0.05): ABC-transporter pumps with significantly down-regulated RNA expressions (MALME-3M cells [2]): ABCB8, ABCC1, ABCG1, ABCG2 | Efflux Pumps (expression level change, p < 0.05): ABC-transporter pumps with significantly down-regulated RNA expressions (SK-MEL-5 cells [3]): ABCB1, ABCB8, ABCG2 | Efflux Pumps (expression level change, p < 0.05): ABC-transporter pumps with significantly down-regulated RNA expressions (MDA-MB-435 cells [4]): ABCB1, ABCB5, ABCC2, ABCG1 | ABCB5 RNA level in response to drug (MDA-MB-435 cells [5]): significantly upregulated | ABCB8 RNA level in response to drug (MDA-MB-435 cells [5]): significant upregulation | ABCB5 RNA expression on drug exposure in presence of GH (SK-MEL-5 cells [6]; [13]): increase | ABCB8 RNA level in response to drug (SK-MEL-5 cells [6]; [12]): significant upregulation | ABCG2 RNA level in response to drug (SK-MEL-5 cells [6]; [12]): significantly upregulated | EC50 (SK-MEL-28 cells [8]): 188 nM | EC50 (four melanoma cell lines; Homo sapiens): 25 to 100 nM

C=C1C(=O)[C@]23[C@H](O)[C@H]1CC[C@H]2[C@@]12CO[C@]3(O)[C@@H](O)[C@@H]1C(C)(C)CC[C@@H]2O [oridonin]
EC50 (four melanoma cell lines; Homo sapiens): 2000 to 8000 nM

CC(=O)O[C@H]1C(=O)[C@@]2(C)[C@H]([C@H](OC(=O)c3ccccc3)[C@]3(O)C[C@H](OC(=O)[C@H](O)[C@@H](NC(=O)c4ccccc4)c4ccccc4)C(C)=C1C3(C)C)[C@]1(OC(C)=O)CO[C@@H]1C[C@@H]2O [paclitaxel, Paclitaxel]
ABCG2 RNA expression on drug exposure in presence of GH (SK-MEL-28 cells [1]; [13]): upregulation | ABCB5 RNA level in response to drug (SK-MEL-28 cells [1]; [12]): significantly upregulated | ABCC1 RNA level in response to drug (SK-MEL-28 cells [1]; [12]): particularly upregulated | ABCC2 RNA level in response to drug (SK-MEL-28 cells [1]; [12]): significantly increased | ABCG1 RNA level in response to drug (SK-MEL-28 cells [1]; [12]): surged | ABCG2 RNA level in response to drug (SK-MEL-28 cells [1]; [12]): significantly upregulated | Efflux Pumps (expression level change, p < 0.05): ABC-transporter pumps with significantly down-regulated RNA expressions (SK-MEL-28 cells [1]): ABCB5, ABCC1, ABCG1, ABCG2 | ABCB8 RNA level in response to drug (MALME-3M cells [2]; [12]): significant upregulation | ABCC2 RNA level in response to drug (MALME-3M cells [2]; [12]): significantly increased | Efflux Pumps (expression level change, p < 0.05): ABC-transporter pumps with significantly down-regulated RNA expressions (MALME-3M cells [2]): ABCB8, ABCC1, ABCG1 | Efflux Pumps (expression level change, p < 0.05): ABC-transporter pumps with significantly down-regulated RNA expressions (SK-MEL-5 cells [3]): ABCB8, ABCC1, ABCC2 | Efflux Pumps (expression level change, p < 0.05): ABC-transporter pumps with significantly down-regulated RNA expressions (MDA-MB-435 cells [4]): ABCB5, ABCB8, ABCG1, ABCG2 | ABCG1 RNA level in response to drug (MDA-MB-435 cells [5]): surged | ABCB5 RNA expression on drug exposure in presence of GH (SK-MEL-5 cells [6]; [13]): increase | ABCB8 RNA level in response to drug (SK-MEL-5 cells [6]; [12]): significant upregulation | ABCC1 RNA level in response to drug (SK-MEL-5 cells [6]; [12]): particularly upregulated | ABCC2 RNA level in response to drug (SK-MEL-5 cells [6]; [12]): significantly increased | inhibition at 0.005 µM (MALME-3M cells [9]): > 90% | EC50 (four melanoma cell lines; Homo sapiens): 2 to 8 nM | inhibition at 0.005 µM (SK-MEL-28 cells [10]): > 90%

CCCS(=O)(=O)Nc1ccc(F)c(C(=O)c2c[nH]c3ncc(-c4ccc(Cl)cc4)cc23)c1F [vemurafenib]
EC50 (four melanoma cell lines; Homo sapiens): 2 to 20 nM

B1: bGH: growth hormone (bGH) added at 50 or 500 ng/mL to B16F10 mouse melanoma cells (protein, UniProt P01246 27-217, looked up)
Somatotropin: AFPAMSLSGLFANAVLRAQHLHQLAADTFKEFERTYIPEGQRYSIQNTQVAFCFSETIPAPTGKNEAQQKSDLELLRISLLLIQSWLGPLQFLSRVFTNSLVFGTSDRVYEKLKDLEEGILALMRELEDGTPRAGQILKQTYDKFDTNMRSDDALLKNYGLLSCFRKDLHKTETYLRVMKCRRFGEASCAF
RNA expression of Abcb1, Abcg1 and Abcg2 ([11]; 50 and 500 ng/mL bGH, 24, 48, and 72 hr): significantly higher RNA expression | levels of Abcb8, Abcc1, Abcc2, and Abcc4 vs untreated controls ([11]; any dose or time-point in vitro): not significantly different
